Assay results taken from patent US9403833B2, “Carboxamide derivatives” (Novartis AG, priority 2014, dated 2016).

Molecular target: Smurf-1 (Homo sapiens (Human), UniProt Q9HCE7)
Assay: HECT E3 ligase autoubiquitinylation TR-FRET assay (Smurf-1)
Assay type: biochemical
Conditions: 8-point dose-response, 3 nM to 10 uM, 45 min incubation
Excerpt: To determine the HECT E3 ligase selectivity of the compounds, a panel of biochemical HECT E3 ligase autoubiquitinylation assays was employed (Smurf-1, Smurf-2, WWP1, WWP2, ITCH, Nedd4, Nedd4L and E6AP). The conjugation of ubiquitin to a protein substrate is a multistep process. In an initial ATP-requiring step, a thioester bond is formed between the carboxyl terminus of ubiquitin and an internal cystein residue of the ubiquitin-activating enzyme (E1). Activated ubiquitin is then transferred to a specific cystein residue of an ubiquitin-conjugating enzyme (E2). E2s donate ubiquitin to a HECT E3 ligase (E3) from which it is transferred to the substrate protein. HECT E3 ligases can auto-ubiquitinylate. This event is detected in the TR-FRET (Time-Resolved Fluorescence Resonance Energy Transfer) assay used in this panel. The reaction mix contains E1, E2, tagged-E3, biotin-conjugated ubiquitin, the compound and ATP in a suitable buffer and is incubated for 45 minutes to allow auto-ubiquitinylation of the E3 ligase. To measure the extent of ubiquitinylated E3 ligase by TR-FRET, the donor fluorophore Europium cryptate (Eu3+ cryptate), conjugated to streptavidin which subsequently binds to biotinylated ubiquitin, and the modified allophycocyanin XL665 (HTRF® primary acceptor fluorophore) coupled to a tag-specific antibody (HA, His or GST), which recognizes the respective E3 ligase fusion proteins, are added after the reaction is complete. When these two fluorophores are brought together by a biomolecular interaction (in this case ubiquitinylation of the E3 ligase), a portion of the energy captured by the Cryptate during excitation is released through fluorescence emission at 620 nm, while the remaining energy is transferred to XL665. This energy is then released by XL665 as specific fluorescence at 665 nm. Light at 665 nm is emitted only through FRET with Europium.
Test and reference compounds are prepared at 180× [final] in 90% DMSO, and diluted 1:3 in 90% DMSO.
For the biochemical assay panel, 50 nl of the test compounds, reference compounds and buffer/DMSO control are transferred to the respective wells of a 384-well white GREINER “SMALL VOLUME” PS plate. The assay panel is run at room temperature on a Biomek FX liquid handling workstation. To the assay plates containing 50 nl compound or control solutions in 90% DMSO, 4.5 ul of E3 ligase solution were added per well, followed by 4.5 ul of the pre-incubated E1/E2/Ub mix or the pre-diluted ubiquitin (LOW control). Plates are shaken vigorously after each addition. In this assay the compound concentrations range from 3 nM to 10 uM in an 8-point dose-response curve.
After 45 min of incubation the ubiquitinylation reactions were stopped by adding 4.5 ul 2 mM NEM, immediately followed by 4.5 ul of a detection solution including the XL665-labeled antibody and the streptavidin-coupled europium to give a total volume of 18 ul. After an incubation time of 45 min in the dark, the plates are transferred into the Pherastar fluorescence reader to measure the TR-FRET signal.

Smurf-1, sequence (Q9HCE7 whole entry): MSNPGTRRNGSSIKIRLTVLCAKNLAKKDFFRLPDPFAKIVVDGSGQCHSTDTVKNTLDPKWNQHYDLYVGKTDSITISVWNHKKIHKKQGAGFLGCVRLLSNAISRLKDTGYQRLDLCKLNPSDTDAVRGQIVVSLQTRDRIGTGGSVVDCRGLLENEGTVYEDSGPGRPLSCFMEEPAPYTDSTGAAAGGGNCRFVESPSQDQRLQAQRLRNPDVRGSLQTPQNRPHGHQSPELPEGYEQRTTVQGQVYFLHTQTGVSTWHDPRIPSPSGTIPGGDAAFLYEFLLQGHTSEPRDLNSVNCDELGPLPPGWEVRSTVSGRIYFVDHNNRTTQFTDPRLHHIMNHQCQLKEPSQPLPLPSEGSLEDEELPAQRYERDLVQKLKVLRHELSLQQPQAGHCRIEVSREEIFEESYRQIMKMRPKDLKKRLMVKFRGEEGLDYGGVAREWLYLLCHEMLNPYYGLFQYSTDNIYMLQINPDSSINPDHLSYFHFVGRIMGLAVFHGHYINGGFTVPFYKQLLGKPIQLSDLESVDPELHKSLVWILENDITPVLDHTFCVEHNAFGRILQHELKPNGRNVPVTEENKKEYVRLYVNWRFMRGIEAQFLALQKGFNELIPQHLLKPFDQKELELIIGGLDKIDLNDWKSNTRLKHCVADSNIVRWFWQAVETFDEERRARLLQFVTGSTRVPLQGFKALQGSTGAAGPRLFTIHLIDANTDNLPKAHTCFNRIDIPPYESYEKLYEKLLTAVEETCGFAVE

Row | Compound | IC50 [nM]
1 | Cc1c(C(=O)Nc2c(C)n(C)n(-c3ccccc3F)c2=O)nnn1-c1ccc(Cl)cc1 [Example 8, 1-(4-Chlorophenyl)-N-(2-(2-fluorophenyl)-1,5-dimethyl-3-oxo-2,3-dihydro-1H-pyrazol-4-yl)-5-methyl-1H-1,2,3-triazole-4-carboxamide] | 2800
2 | Cc1c(C(=O)Nc2c(C)n(C)n(C3CCCCC3)c2=O)nnn1-c1ccc(OC(F)(F)F)cc1Cl [Example 5, 1-(2-Chloro-4-(trifluoromethoxy)phenyl)-N-(2-cyclohexyl-1,5-dimethyl-3-oxo-2,3-dihydro-1H-pyrazol-4-yl)-5-methyl-1H-1,2,3-triazole-4-carboxamide] | 550
3 | Cc1c(C(=O)Nc2c(C)n(C)n(C3CCCCC3)c2=O)nnn1-c1ccc(C2CC2)cc1Cl [Example 10, 1-(2-Chloro-4-cyclopropylphenyl)-N-(2-cyclohexyl-1,5-dimethyl-3-oxo-2,3-dihydro-1H-pyrazol-4-yl)-5-methyl-1H-1,2,3-triazole-4-carboxamide] | 92
4 | COc1ccc(-n2nnc(C(=O)Nc3c(C)n(C)n(C4CCCCC4)c3=O)c2C)c(C(F)(F)F)c1 [Example 3, N-(2-Cyclohexyl-1,5-dimethyl-3-oxo-2,3-dihydro-1H-pyrazol-4-yl)-1-(4-methoxy-2-(trifluoromethyl)phenyl)-5-methyl-1H-1,2,3-triazole-4-carboxamide] | 890
5 | Cc1c(C(=O)Nc2c(C)n(C)n(C3CCCCC3)c2=O)nnn1-c1ccc(Cl)cc1C1CC1 [Example 14, 1-(4-Chloro-2-cyclopropylphenyl)-N-(2-cyclohexyl-1,5-dimethyl-3-oxo-2,3-dihydro-1H-pyrazol-4-yl)-5-methyl-1H-1,2,3-triazole-4-carboxamide] | 230
6 | Cc1c(C(=O)Nc2c(C)n(C)n(-c3ccccc3F)c2=O)nnn1-c1ccc(Cl)cc1C1CC1 [Example 13, 1-(4-Chloro-2-cyclopropylphenyl)-N-(2-(2-fluorophenyl)-1,5-dimethyl-3-oxo-2,3-dihydro-1H-pyrazol-4-yl)-5-methyl-1H-1,2,3-triazole-4-carboxamide] | 3300
7 | Cc1c(C(=O)Nc2c(C)n(C)n(C3CCCCC3)c2=O)nnn1-c1ccc(Cl)cc1 [Example 6, 1-(4-Chlorophenyl)-N-(2-cyclohexyl-1,5-dimethyl-3-oxo-2,3-dihydro-1H-pyrazol-4-yl)-5-methyl-1H-1,2,3-triazole-4-carboxamide] | 8200
8 | [2H]C([2H])([2H])n1c(C)c(NC(=O)c2nnn(-c3ccc(C4CC4)cc3Cl)c2C)c(=O)n1C1CCCCC1 [Example 12, 1-(2-Chloro-4-cyclopropylphenyl)-N-(2-cyclohexyl-1-methyl-d3,5-methyl-3-oxo-2,3-dihydro-1H-pyrazol-4-yl)-5-methyl-1H-1,2,3-triazole-4-carboxamide] | 98
9 | Cc1c(C(=O)Nc2c(C)n(C)n(-c3ccccc3F)c2=O)nnn1-c1ccc(OC(F)(F)F)cc1Cl [Example 9, 1-(2-Chloro-4-(trifluoromethoxy)phenyl)-N-(2-(2-fluorophenyl)-1,5-dimethyl-3-oxo-2,3-dihydro-1H-pyrazol-4-yl)-5-methyl-1H-1,2,3-triazole-4-carboxamide] | 4400
10 | Cc1c(C(=O)Nc2c(C)n(C)n(C3CCCCC3)c2=O)nnn1-c1ccc(F)cc1C1CC1 [Example 15, N-(2-Cyclohexyl-1,5-dimethyl-3-oxo-2,3-dihydro-1H-pyrazol-4-yl)-1-(2-cyclopropyl-4-fluorophenyl)-5-methyl-1H-1,2,3-triazole-4-carboxamide] | 4500
11 | COc1ccc(-n2nnc(C(=O)Nc3c(C)n(C)n(C4CCCCC4)c3=O)c2C)c(Cl)c1 [Example 1, 1-(2-Chloro-4-methoxyphenyl)-N-(2-cyclohexyl-1,5-dimethyl-3-oxo-2,3-dihydro-1H-pyrazol-4-yl)-5-methyl-1H-1,2,3-triazole-4-carboxamide] | 440
12 | Cc1c(NC(=O)c2nnn3c2CCCc2cc(OC(F)(F)F)ccc2-3)c(=O)n(C2CCCCC2)n1C [Example 16, N-(2-Cyclohexyl-1,5-dimethyl-3-oxo-2,3-dihydro-1H-pyrazol-4-yl)-8-(trifluoromethoxy)-5,6-dihydro-4H-benzo[f][1,2,3]triazolo[1,5-a]azepine-3-carboxamide] | 55
13 | Cc1c(C(=O)Nc2c(C)n(C)n(-c3ccccc3F)c2=O)nnn1-c1ccc(C2CC2)cc1Cl [Example 11, 1-(2-Chloro-4-cyclopropylphenyl)-N-(2-(2-fluorophenyl)-1,5-dimethyl-3-oxo-2,3-dihydro-1H-pyrazol-4-yl)-5-methyl-1H-1,2,3-triazole-4-carboxamide] | 1000
14 | Cc1c(C(=O)Nc2c(C)n(C)n(-c3ccccc3F)c2=O)nnn1-c1ccc(Cl)cc1Cl [Example 7, 1-(2,4-Dichlorophenyl)-N-(2-(2-fluorophenyl)-1,5-dimethyl-3-oxo-2,3-dihydro-1H-pyrazol-4-yl)-5-methyl-1H-1,2,3-triazole-4-carboxamide] | 5800
15 | Cc1c(C(=O)Nc2c(C)n(C)n(C3CCCCC3)c2=O)nnn1-c1ccc(Cl)cc1Cl [Example 2, N-(2-Cyclohexyl-1,5-dimethyl-3-oxo-2,3-dihydro-1H-pyrazol-4-yl)-1-(2,4-dichlorophenyl)-5-methyl-1H-1,2,3-triazole-4-carboxamide] | 570
16 | COc1ccc(-n2nnc(C(=O)Nc3c(C)n(C)n(C4CCCCC4)c3=O)c2C)cc1 [Example 17, N-(2-Cyclohexyl-1,5-dimethyl-3-oxo-2,3-dihydro-1H-pyrazol-4-yl)-1-(4-methoxyphenyl)-5-methyl-1H-1,2,3-triazole-4-carboxamide] | 3100
